Experiments:
Experiment in all cases: Pre-emergent control of seed germination, soil drench
Format in all cases: in vivo
Barnyard Grass = conditions: Barnyard Grass, about 2 weeks
In short: (§1)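 Compound formulated with Span 85/Tween 80 in acetone, dispersed in water, and applied as a soil drench to seeded beds at 1.0, 2.0 and 5.0 lb/acre (about 1.6, 3.2, 8.0 ppm soil); lower concentrations also tested. Germination control scored versus untreated checks after about 2 weeks.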

Pigweeds = conditions: Pig Weeds, about 2 weeks
In short: as §1

Wild Oats = conditions: Wild Oats, about 2 weeks
In short: as §1

Yellow Foxtail = conditions: Yellow Foxtail, about 2 weeks
In short: as §1

Crabgrass = conditions: for Percent Pre-Emergent Control of Seed Germination: Crabgrass, about 2 weeks; for % Control: pre-emergence, Crab Grass
Johnson Grass = conditions: Johnson Grass; for Percent Pre-Emergent Control of Seed Germination: about 2 weeks; for % Control: pre-emergence

ClC(Cl)(Cl)CC1(c2cccc(Br)c2)CO1 (stereo not shown) [Example 3, 2-(m-bromophenyl)-2-(2,2,2-trichloroethyl)oxirane]
95%: Percent Pre-Emergent Control of Seed Germination (Barnyard Grass; 1.0 pounds per surface acre) | Percent Pre-Emergent Control of Seed Germination (Barnyard Grass; 2.0 pounds per surface acre) | Percent Pre-Emergent Control of Seed Germination (Barnyard Grass; 5.0 pounds per surface acre) | Percent Pre-Emergent Control of Seed Germination (Pigweeds; 1.0 pounds per surface acre) | Percent Pre-Emergent Control of Seed Germination (Yellow Foxtail; 5.0 pounds per surface acre) | % Control (Crabgrass; 1/8 Lb/Acre) | Percent Pre-Emergent Control of Seed Germination (Johnson Grass; 1.0 pounds per surface acre) | Percent Pre-Emergent Control of Seed Germination (Johnson Grass; 2.0 pounds per surface acre) | % Control (Johnson Grass; 1/8 Lb/Acre) | % Control (Johnson Grass; 1/16 Lb/Acre)
0%: Percent Pre-Emergent Control of Seed Germination (Crabgrass; 1.0 pounds per surface acre)
100%: Percent Pre-Emergent Control of Seed Germination (Pigweeds; 2.0 pounds per surface acre) | Percent Pre-Emergent Control of Seed Germination (Pigweeds; 5.0 pounds per surface acre) | Percent Pre-Emergent Control of Seed Germination (Wild Oats; 1.0 pounds per surface acre) | Percent Pre-Emergent Control of Seed Germination (Wild Oats; 2.0 pounds per surface acre) | Percent Pre-Emergent Control of Seed Germination (Wild Oats; 5.0 pounds per surface acre) | Percent Pre-Emergent Control of Seed Germination (Yellow Foxtail; 1.0 pounds per surface acre) | Percent Pre-Emergent Control of Seed Germination (Yellow Foxtail; 2.0 pounds per surface acre) | Percent Pre-Emergent Control of Seed Germination (Crabgrass; 2.0 pounds per surface acre) | Percent Pre-Emergent Control of Seed Germination (Crabgrass; 5.0 pounds per surface acre) | Percent Pre-Emergent Control of Seed Germination (Johnson Grass; 5.0 pounds per surface acre)
70%: % Control (Crabgrass; 1/16 Lb/Acre)

Reference: patent US4018801A, “Substituted oxirane compounds” (The Dow Chemical Company, priority 1975, dated 1977)
